The text below walks through data of patent US20080051401A1, “2,4,6-Trisubstituted Pyrimidines as Phosphotidylinositol (Pi) 3-Kinase Inhibitors and Their Use in the Treatment of Cancer” (priority 2004, published 2008).

Experiment [1] relates to MDA-MB-468 human breast adenocarcinoma cell line. The experiment can be described thus: In vitro MDA-MB-468 human breast adenocarcinoma proliferation assay, Test (c). The experiment is classed as cell-based. To be noted: BrdU incorporation, 48 hours incubation, read-out: IC50, inhibition of MDA-MB-468 cell growth. The text has this: (c) In Vitro MDA-MB-468 Human Breast Adenocarcinoma Proliferation Assay
This assay determines the ability of test compounds to inhibit cell proliferation as assessed using Cellomics Arrayscan technology. A MDA-MB-468 human breast adenocarcinoma cell line (LGC Promochem, Catalogue No. HTB-132) was routinely maintained as described in Biological Assay (b) hereinbefore.
For the proliferation assay, the cells were detached from the culture flask using Accutase and seeded into the inner 60 wells of a black Packard 96 well plate at a density of 8000 cells per well in 100 μl of complete growth media. The outer wells contained 100 μl of sterile PBS. The cells were incubated overnight at 37° C. with 5% CO2 to allow them to adhere.
On day 2, the cells were treated with test compounds and incubated for 48 hours at 37° C. with 5% CO2. […]
BrdU incorporation was detected by incubation for 1 hour at ambient temperature with mouse anti-BrdU antibody (50 μl; Caltag, Burlingame, Calif., US; Catalogue No. MD5200) that was diluted 1:40 in PBS containing 1% BSA and 0.05% Tween-20. […] Subsequently, PBS (100 μl) was added to each well and the plates were analysed using a Cellomics array scan to assess total cell number and number of BrdU positive cells.
Fluorescence dose response data obtained with each compound were analysed and the degree of inhibition of MDA-MB-468 cell growth was expressed as an IC50 value.

The test system of experiment [2] is phosphorylation of Serine 473 in Akt in MDA-MB-468 human breast adenocarcinoma cell line. The experiment can be described thus: In vitro phospho-Ser473 Akt assay, Test (b). To be noted: MDA-MB-468 cells, 2 hours incubation, read-out: IC50, inhibition of phosphorylation of Serine 473 in Akt. The experiment is classed as cell-based. Here is the method: (b) In Vitro Phospho-Ser473 Akt Assay
This assay determines the ability of test compounds to inhibit phosphorylation of Serine 473 in Akt as assessed using Acumen Explorer technology (Acumen Bioscience Limited), a plate reader that can be used to rapidly quantitate features of images generated by laser-scanning.
A MDA-MB-468 human breast adenocarcinoma cell line (LGC Promochem, Teddington, Middlesex, UK, Catalogue No. HTB-132) was routinely maintained at 37° C. with 5% CO2 up to a confluency of 70-90% in Dulbecco's modified Eagle's growth medium (DMEM; Invitrogen Limited, Paisley, UK Catalogue No. 41966-029) containing 10% heat-inactivated foetal calf serum (FCS; Sigma, Poole, Dorset, UK, Catalogue No. F0392) and 1% L-glutamine (Gibco, Catalogue No. 25030-024).
For the assay, the cells were detached from the culture flask using ‘Accutase’ (Innovative Cell Technologies Inc., San Diego, Calif., USA; Catalogue No. AT104) using standard tissue culture methods and resuspended in media to give 1.7×10^5 cells per ml. Aliquots (90 μl) were seeded into each of the inner 60 wells of a black Packard 96 well plate (PerkinElmer, Boston, Mass., USA; Catalogue No. 6005182) to give a density of ˜15000 cells per well. Aliquots (90 μl) of culture media were placed in the outer wells to prevent edge effects. The cells were incubated overnight at 37° C. with 5% CO2 to allow them to adhere.
On day 2, the cells were treated with test compounds and incubated for 2 hours at 37° C. with 5% CO2. Test compounds were prepared as 10mM stock solutions in DMSO and serially diluted as required with growth media to give a range of concentrations that were 10-fold the required final test concentrations. Aliquots (10 μl) of each compound dilution were placed in a well (in triplicate) to give the final required concentrations. […]
All subsequent aspiration and wash steps were carried out using a Tecan 96 well plate washer (aspiration speed 10 mm/sec). […] An aliquot of PBS (50 μl) was added to each well and the plates were sealed with black plate sealers and the fluorescence signal was detected and analysed. […]

Experiment [3] has as its target T1, p110α Type Ia human PI3K (Homo sapiens, UniProt P42336).
T1 construct: full length DNA of each of the p110α, p110β and p110δ Type Ia human PI3K p110 isoforms; 6-His; made in house
The experiment can be described thus: In vitro enzyme assay (AlphaScreen), Test (a). The experiment is classed as biochemical. To be noted: recombinant enzyme, PI(4,5)P2 substrate, ATP 4 μM, read-out: IC50 versus p110α Type Ia human PI3K. The text has this:
(a) In Vitro Enzyme Assay
The assay used AlphaScreen technology (Gray et al., Analytical Biochemistry, 2003, 313: 234-245) to determine the ability of test compounds to inhibit phosphorylation by recombinant Type I PI3K enzymes of the lipid PI(4,5)P2.
DNA fragments encoding human PI3K catalytic and regulatory subunits were isolated from cDNA libraries using standard molecular biology and PCR cloning techniques. The selected DNA fragments were used to generate baculovirus expression vectors. In particular, full length DNA of each of the p110α, p110β and p110δ Type Ia human PI3K p110 isoforms (EMBL Accession Nos. HSU79143, S67334, Y10055 for p110α, p110β and p110δ respectively) were sub-cloned into a pDEST10 vector (Invitrogen Limited, Fountain drive, Paisley, UK). The vector is a Gateway-adapted version of Fastbac1 containing a 6-His epitope tag. A truncated form of Type Ib human PI3K p110γ isoform corresponding to amino acid residues 144-1102 (EMBL Accession No. X8336A) and the full length human p85α regulatory subunit (EMBL Accession No. HSP13KIN) were also sub-cloned into pFastBac1 vector containing a 6-His epitope tag. The Type Ia p110 constructs were co-expressed with the p85α regulatory subunit. Following expression in the baculovirus system using standard baculovirus expression techniques, expressed proteins were purified using the His epitope tag using standard purification techniques.
DNA corresponding to amino acids 263 to 380 of human Grp1 PH domain was isolated from a cDNA library using standard molecular biology and PCR cloning techniques. […]
Biotinylated-DiC8-PI(3,4,5)P3 (50 nM; Cell Signals Inc., Catalogue No. 107), recombinant purified GST-Grp1 PH protein (2.5 nM) and AlphaScreen Anti-GST donor and acceptor beads (100 ng; Packard Bioscience Limited, Station Road, Pangbourne, Berkshire, UK, Catalogue No. 6760603M) were added and the assay plates were left for about 5 to 20 hours at ambient temperature in the dark. The resultant signals arising from laser light excitation at 680 nm were read using a Packard AlphaQuest instrument. […]
(In Alpha technology, singlet oxygen from a donor bead excites a nearby acceptor bead.)

For orientation: IC50 means the concentration at which inhibition is half-maximal.

T1 sequence (P42336 whole entry, canonical isoform): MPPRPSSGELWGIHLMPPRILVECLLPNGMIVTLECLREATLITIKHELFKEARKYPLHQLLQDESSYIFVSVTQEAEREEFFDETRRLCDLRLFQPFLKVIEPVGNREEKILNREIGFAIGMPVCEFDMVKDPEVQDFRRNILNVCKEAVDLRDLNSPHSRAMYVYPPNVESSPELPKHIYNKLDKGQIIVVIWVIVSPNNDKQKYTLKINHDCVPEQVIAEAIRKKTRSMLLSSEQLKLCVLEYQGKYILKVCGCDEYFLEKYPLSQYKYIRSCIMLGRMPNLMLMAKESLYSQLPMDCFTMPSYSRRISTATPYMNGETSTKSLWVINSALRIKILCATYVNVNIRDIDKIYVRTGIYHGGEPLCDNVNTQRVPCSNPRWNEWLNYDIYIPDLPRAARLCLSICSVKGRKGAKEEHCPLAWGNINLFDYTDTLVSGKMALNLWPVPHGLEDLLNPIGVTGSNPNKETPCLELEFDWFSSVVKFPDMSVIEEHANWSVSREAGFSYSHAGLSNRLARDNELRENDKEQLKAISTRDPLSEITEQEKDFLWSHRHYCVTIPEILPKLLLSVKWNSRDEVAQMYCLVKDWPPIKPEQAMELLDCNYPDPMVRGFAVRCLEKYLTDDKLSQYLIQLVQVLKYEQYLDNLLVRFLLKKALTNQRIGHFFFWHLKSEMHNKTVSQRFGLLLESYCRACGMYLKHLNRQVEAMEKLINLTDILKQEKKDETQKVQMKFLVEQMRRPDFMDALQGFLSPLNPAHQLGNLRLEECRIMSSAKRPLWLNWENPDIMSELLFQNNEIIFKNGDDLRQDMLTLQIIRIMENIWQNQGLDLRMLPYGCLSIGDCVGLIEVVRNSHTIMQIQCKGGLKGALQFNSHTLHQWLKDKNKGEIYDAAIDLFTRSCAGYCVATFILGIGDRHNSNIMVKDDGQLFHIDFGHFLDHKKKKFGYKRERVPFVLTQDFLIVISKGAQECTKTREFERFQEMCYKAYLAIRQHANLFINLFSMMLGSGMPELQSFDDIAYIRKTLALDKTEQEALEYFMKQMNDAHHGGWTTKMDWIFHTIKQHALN
T1 sequence (P27986 whole entry partner, canonical isoform): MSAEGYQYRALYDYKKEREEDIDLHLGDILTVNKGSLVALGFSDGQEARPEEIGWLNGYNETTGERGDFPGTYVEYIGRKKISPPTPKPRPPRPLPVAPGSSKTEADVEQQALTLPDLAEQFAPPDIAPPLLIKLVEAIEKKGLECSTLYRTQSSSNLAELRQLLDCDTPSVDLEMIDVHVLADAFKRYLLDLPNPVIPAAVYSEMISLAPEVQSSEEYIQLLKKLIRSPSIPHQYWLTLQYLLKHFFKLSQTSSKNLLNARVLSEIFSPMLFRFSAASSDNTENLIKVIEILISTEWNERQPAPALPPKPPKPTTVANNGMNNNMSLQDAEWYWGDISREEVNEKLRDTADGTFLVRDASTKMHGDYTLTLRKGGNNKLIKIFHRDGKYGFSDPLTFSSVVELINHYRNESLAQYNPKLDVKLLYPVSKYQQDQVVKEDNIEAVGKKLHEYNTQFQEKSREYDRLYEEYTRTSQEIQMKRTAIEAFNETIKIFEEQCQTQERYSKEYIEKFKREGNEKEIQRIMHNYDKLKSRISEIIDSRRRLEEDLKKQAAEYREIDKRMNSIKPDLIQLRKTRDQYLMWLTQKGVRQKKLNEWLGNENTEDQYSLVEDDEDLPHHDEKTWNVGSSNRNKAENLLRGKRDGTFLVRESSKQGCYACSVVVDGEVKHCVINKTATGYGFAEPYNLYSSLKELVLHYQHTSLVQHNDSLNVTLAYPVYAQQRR

As to `O=C(Nc1cccc(-c2cc(N3CCOCC3)nc(-c3cccc(CO)c3)n2)c1)C1CCNCC1` [Example 1, 2-(3-hydroxymethylphenyl)-6-morpholino-4-(3-piperidin-4-ylcarbonylaminophenyl)pyrimidine], the IC50 in experiment [1] is around 8000 nM; in experiment [2], around 5000 nM; in experiment [3], around 100 nM.
In the case of `O=C(Nc1cccc(-c2cc(N3CCOCC3)nc(-c3cccc(O)c3)n2)c1)C1CCCNC1` (stereo not shown) [Example 6, 2-(3-hydroxyphenyl)-6-morpholino-4-(3-piperidin-3-ylcarbonylaminophenyl)pyrimidine], the IC50 was around 300 nM in experiment [2] and around 100 nM in experiment [3].
In the case of `O=C(Nc1cccc(-c2cc(N3CCOCC3)nc(-c3cccc(CO)c3)n2)c1)N1CCNCC1` [Example 10, 2-(3-hydroxymethylphenyl)-6-morpholino-4-(3-piperazin-1-ylcarbonylaminophenyl)pyrimidine], the IC50 in experiment [2] was around 500 nM; in experiment [3], around 300 nM.
